# Data reported in patent US5494936A, “Delivery formulation for probucol” (priority 1994, dated 1996).
# Like-named read-outs stand apart in the source and are kept apart here.
# What was measured:
# HIV = details: cited from earlier work
# [1] = cited from earlier work
# Solubility of probucol = assay type: physicochemical; details: formulation A; 10% probucol; ethanol not required to prevent precipitation
# Protocol: The ethanol was added as a cosolvent to prevent precipitation of probucol from the peanut oil in formulations B & C.
smiles,measurement,setting,value
Cc1cn([C@H]2C[C@H](N=[N+]=[N-])[C@@H](CO)O2)c(=O)[nH]c1=O [AZT],death rate,"HIV; after one year, 159 patients, estimated average CD4+ count 189",15%
Nc1ccn([C@H]2CC[C@@H](CO)O2)c(=O)n1 [ddC],death rate,"HIV; after 12 months, 20 patients, average CD4+ count on entry 154",25%
"CC(C)(Sc1cc(C(C)(C)C)c(O)c(C(C)(C)C)c1)Sc1cc(C(C)(C)C)c(O)c(C(C)(C)C)c1 [Probucol, bis(3,5-di-tert-butyl-4-hydroxyphenyl) acetone mercaptole]",water solubility,[1],water-insoluble
same,water solubility,[1]; listed as probucol,substantially water insoluble
same,solubility in medium chain triglycerides,Solubility of probucol,sufficiently soluble in medium chain triglycerides
